In US20220298135A1, “5-HETEROARYL-PYRIDIN-2-AMINE COMPOUNDS AS NEUROPEPTIDE FF RECEPTOR ANTAGONISTS” (Domain Therapeutics, priority 2019, published 2022):

Tests used:
[1] = molecular target: T1, human NPFFR1 (hNPFFR1) receptor (Homo sapiens, UniProt Q9GZQ6); test: Human NPFFR1 evaluation using BRET biosensors (antagonist IC50); type: cell-based; details: hNPFFR1 transiently over-expressed in HEK-293 T cells; BRET signal; stimulation by EC80 RFRP-3
T1 construct: expressed in transfected cells; host or cells: HEK-293 T cells, transient co-transfection with polyethylenimine
T1 sequence (Q9GZQ6 whole entry): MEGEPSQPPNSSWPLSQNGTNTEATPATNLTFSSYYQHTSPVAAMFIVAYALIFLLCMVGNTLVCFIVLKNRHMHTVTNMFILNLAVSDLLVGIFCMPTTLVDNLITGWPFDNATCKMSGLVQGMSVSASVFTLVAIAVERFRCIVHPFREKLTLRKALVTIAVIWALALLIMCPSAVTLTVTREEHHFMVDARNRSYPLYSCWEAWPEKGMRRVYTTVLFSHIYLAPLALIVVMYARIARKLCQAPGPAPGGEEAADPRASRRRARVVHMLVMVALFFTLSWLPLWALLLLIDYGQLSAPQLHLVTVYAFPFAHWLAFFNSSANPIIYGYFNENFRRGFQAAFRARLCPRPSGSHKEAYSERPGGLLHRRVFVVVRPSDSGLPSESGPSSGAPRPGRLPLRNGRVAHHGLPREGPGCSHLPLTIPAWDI
Experimental: Compounds of the present invention were tested successively for their agonist and antagonist activities on human NPFFR1 (hNPFFR1) receptor transiently over-expressed in HEK-293 T cells. Compounds exert agonist activity if, by themselves in absence of neuropeptide RFRP-3 (also named NPVF) they activate hNPFFR1; and they exert antagonist activity if they decrease the action of RFRP-3 on the receptor.
The assay used to measure compound activity is based on BRET (Bioluminescence Resonance Energy Transfer) biosensors and is designed to monitor the plasma membrane translocation of protein that interacts with specific Ga subunit. The specific effector (luciferase tagged: BRET donor) recruited at the membrane will be in close proximity to a plasma membrane anchor (GFP tagged: BRET acceptor) to induce a BRET signal. Biosensors are described in the patent application WO 2016/041093 A1 (Biosensors for monitoring biomolecule localization and trafficking in cells).
HEK-293 T cells are maintained in Dulbecco's Modified Eagle's Medium supplemented with 10% Foetal Calf Serum, 1% Penicillin/Streptomycin at 37° C./5% CO2.
Cells are co-transfected using polyethylenimine (25 kDa linear) with four DNA plasmids encoding: hNPFFR1, GαoB, a Gi family specific intracellular effector fused to luciferase (BRET donor), a plasma membrane effector fused to GFP (BRET acceptor). After transfection, cells are cultured for 48 h at 37° C./5% CO2.
Receptor activity is detected by changes in BRET signal.
On the day of the assay, cells are detached using trypsin 0.05%, resuspended in assay buffer (1.8 mM CaCl2, 1 mM MgCl2, 2.7 mM KCl, 137 mM NaCl, 0.4 mM NaH2PO4, 5.5 mM D-Glucose, 11.9 mM NaHCO3, 25 mM Hepes) and seeded in 384 well plate at a density of 20,000 cells per well. Then, plates are equilibrated 3.5 hours at 37° C. before adding compounds.
Compounds and luciferase substrate are added to the cells using an automated device (Freedom Evo®, Tecan) and BRET readings are collected on EnVision (PerkinElmer) with specific filters (410 nm BW 80 nm, 515 nm BW 30 nm).
Agonist and antagonist activities of compounds are consecutively evaluated on the same cell plate. Agonist activity is first measured after 10 minutes incubation with compound alone on the cells. Then, cells are stimulated by an EC80 RFRP-3 concentration and luminescence is recorded for additional 10 minutes. EC80 RFRP-3 concentration is the concentration giving 80% of the maximal RFRP-3 response. Agonist or antagonist activities are evaluated in comparison to basal signals evoked by assay buffer or EC80 RFRP-3 alone, respectively.
For IC50 determination, a dose-response test is performed using 20 concentrations (ranging over 6 logs) of each compound. Dose-response curves are fitted using the sigmoidal dose-response (variable slope) analysis in GraphPad Prism software (GraphPad Software) and IC50 of antagonist activity is calculated. Dose-response experiments are performed in duplicate, in two independent experiments.

Row | IC50 [1] | melting point | Compound
1 | 100 to 1000 nM | 100 to 113 °C | Cl.Nc1ccc(-c2cccc3ccsc23)c(N)n1 [Example 29, 3-(Benzothiophen-7-yl)pyridine-2,6-diamine]
2 | 100 to 1000 nM | 50 to 80 °C | CCc1nc(N)ccc1-c1ccccc1-c1ccc(N2CCCCC2)nc1.Cl [Example 80, 6-ethyl-5-(2-(6-(piperidin-1-yl)pyridin-3-yl)phenyl)pyridin-2-amine]
3 | > 1000 nM | 120 to 137 °C | CCc1nc(N)ccc1-c1ccc(C(F)(F)F)c2cccnc12.Cl [Example 75, 6-ethyl-5-(5-(trifluoromethyl)quinolin-8-yl)pyridin-2-amine]
4 | < 100 nM | 100 to 117 °C | Cn1ccc2cccc(-c3ccc(N)nc3N)c21 [Example 49, 3-(1-methyl-1H-indol-7-yl)pyridine-2,6-diamine]
5 | > 1000 nM | > 250 °C | Cl.Cn1nccc1-c1ccccc1-c1ccc(N)nc1N [Example 48, 3-(2-(1-methyl-1H-pyrazol-5-yl)phenyl)pyridine-2,6-diamine]
6 | < 100 nM | 153 to 169 °C | CCc1nc(N)ccc1-c1cccc2cc3c(nc12)CCC3.Cl [Example 115, 5-(2,3-dihydro-1H-cyclopenta[b]quinolin-5-yl)-6-ethylpyridin-2-amine]
7 | < 100 nM | 80 to 120 °C | CCCc1nc(N)ccc1-c1cccc2cccnc12.Cl [Example 8, 6-Propyl-5-(8-quinolyl)pyridin-2-amine]
8 | 100 to 1000 nM | > 250 °C | CCc1nc(N)ccc1-c1ccccc1-c1cccnc1.Cl [Example 44, 6-Ethyl-5-[2-(3-pyridyl)phenyl]pyridin-2-amine]
9 | < 100 nM | 120 to 130 °C | CCc1nc(N)ccc1-c1c(F)c(F)cc2cc(F)cnc12.Cl [Example 150, 6-ethyl-5-(3,6,7-trifluoroquinolin-8-yl)pyridin-2-amine]
10 | < 100 nM | 110 to 124 °C | Cl.Nc1ccc(-c2cccc3c2OCCC3)c(N)n1 [Example 37, 3-Chroman-8-yl-pyridine-2,6-diamine]
11 | < 100 nM | 100 to 150 °C | CCc1nc(N)ccc1-c1c(F)ccc2ccc(N3CCCOCC3)nc12.Cl [Example 134, 6-ethyl-5-(7-fluoro-2-(1,4-oxazepan-4-yl)quinolin-8-yl)pyridin-2-amine]
12 | < 100 nM | > 250 °C | CCc1nc(N)ccc1-c1cccc2ccc(-c3cnccn3)nc12.Cl [Example 126, 6-ethyl-5-(2-(pyrazin-2-yl)quinolin-8-yl)pyridin-2-amine]
13 | < 100 nM | 111 to 116 °C | CCc1nc(N)ccc1-c1cccc2ccc(-c3ccccn3)nc12.Cl [Example 119, 6-ethyl-5-(2-(pyridin-2-yl)quinolin-8-yl)pyridin-2-amine]
14 | < 100 nM | 110 to 145 °C | CCc1nc(N)ccc1-c1c(F)ccc2ccc(N3CCCCCC3)nc12.Cl [Example 137, 5-(2-(azepan-1-yl)-7-fluoroquinolin-8-yl)-6-ethylpyridin-2-amine]
15 | 100 to 1000 nM | > 250 °C | CCc1nc(N)ccc1-c1cccc2ccc(=O)[nH]c12.Cl [Example 154, 8-(6-amino-2-ethylpyridin-3-yl)quinolin-2(1H)-one]
16 | < 100 nM | 130 to 170 °C | Cc1ccc2ccc(F)c(-c3ccc(N)nc3N)c2n1.Cl [Example 23, 3-(7-fluoro-2-methylquinolin-8-yl)pyridine-2,6-diamine]
17 | < 100 nM | 126 to 136 °C | CCc1nc(N)ccc1-c1c(F)cc(F)c2cccnc12.Cl [Example 108, 5-(5,7-difluoroquinolin-8-yl)-6-ethylpyridin-2-amine]
18 | 100 to 1000 nM | 197 to 211 °C | CCc1nc(N)ccc1-c1cccc2cc3c(nc12)CCN(C)C3.Cl.Cl [Example 114, 6-ethyl-5-(2-methyl-1,2,3,4-tetrahydrobenzo[b][1,6]naphthyridin-6-yl)pyridin-2-amine]
19 | 100 to 1000 nM | > 250 °C | CCc1nc(N)ccc1-c1cccc2c(C)ccnc12.Cl [Example 91, 6-ethyl-5-(4-methylquinolin-8-yl)pyridin-2-amine]

Row | IC50 [1] | melting point | Compound
20 | > 1000 nM | 150 to 154 °C | CC(C)(C)OC(=O)n1cc(-c2ccc(N)nc2N)c2ccccc21 [Example 17, Tert-butyl 3-(2,6-diamino-3-pyridyl)indole-1-carboxylate]
21 | 100 to 1000 nM | 85 to 100 °C | CCc1nc(N)ccc1-c1cc(F)ccc1-c1ccc(N2CCOCC2)nc1.Cl [Example 83, 6-ethyl-5-(5-fluoro-2-(6-morpholinopyridin-3-yl)phenyl)pyridin-2-amine]
22 | 100 to 1000 nM | > 250 °C | Nc1ccc(-c2cccc3ncccc23)c(N)n1 [Example 34, 3-Quinolin-5-yl-pyridine-2,6-diamine]
23 | < 100 nM | 62 to 70 °C | Nc1ccc(-c2cccc3cc[nH]c23)c(N)n1 [Example 25, 3-(1H-indol-7-yl)pyridine-2,6-diamine]
24 | < 100 nM | 180 to 210 °C | Cl.Nc1ccc(-c2ccccc2-c2ccc(N3CCOCC3)nc2)c(N)n1 [Example 46, 3-[2-(6-morpholino-3-pyridyl)phenyl]pyridine-2,6-diamine]
25 | 100 to 1000 nM | > 250 °C | CCc1nc(N)ccc1-c1c(F)cc(F)c2ccc(=O)[nH]c12.Cl [Example 159, 8-(6-amino-2-ethylpyridin-3-yl)-5,7-difluoroquinolin-2(1H)-one]
26 | < 100 nM | > 250 °C | CCc1nc(N)ccc1-c1cccc2ccncc12.Cl [Example 6, 6-Ethyl-5-(8-isoquinolyl)pyridin-2-amine]
27 | 100 to 1000 nM | 35 to 38 °C | Cl.Nc1ccc(-c2csc3ccccc23)c(N)n1 [Example 21, 3-(Benzothiophen-3-yl)pyridine-2,6-diamine]
28 | > 1000 nM | > 250 °C | Nc1ccc(-c2ccnc3ccccc23)c(N)n1 [Example 35, 3-Quinolin-4-yl-pyridine-2,6-diamine]
29 | > 1000 nM | 180 to 185 °C | Nc1ccc(-c2cncc3ccccc23)c(N)n1 [Example 36, 3-Isoquinolin-4-yl-pyridine-2,6-diamine]
30 | 100 to 1000 nM | > 250 °C | Cl.Nc1ccc(-c2cccc3scnc23)c(N)n1 [Example 30, 3-(1,3-Benzothiazol-4-yl)pyridine-2,6-diamine]
31 | 100 to 1000 nM | 198 to 204 °C | Cl.Cn1ncc2cccc(-c3ccc(N)nc3N)c21 [Example 26, 3-(1-Methylindazol-7-yl)pyridine-2,6-diamine]
32 | > 1000 nM | 150 to 164 °C | CCc1nc(N)ccc1-c1c(C(N)=O)ccc2cccnc12.Cl [Example 152, 8-(6-amino-2-ethylpyridin-3-yl)quinoline-7-carboxamide]
33 | 100 to 1000 nM | 175 to 183 °C | CCc1nc(N)ccc1-c1cccc2c1NCC2.Cl [Example 164, 6-ethyl-5-(indolin-7-yl)pyridin-2-amine]
34 | 100 to 1000 nM | 120 to 150 °C | CCc1nc(N)ccc1-c1ccccc1-c1cncc(C)c1.Cl [Example 85, 6-ethyl-5-(2-(5-methylpyridin-3-yl)phenyl)pyridin-2-amine]
35 | < 100 nM | > 250 °C | Cl.Nc1ccc(-c2c(F)c(F)cc3ccc(O)nc23)c(N)n1 [Example 64, 8-(2,6-diaminopyridin-3-yl)-6,7-difluoroquinolin-2-ol]
36 | < 100 nM | 180 to 200 °C | Cc1cc(-c2ccc(N)nc2N)c2ncccc2c1.Cl [Example 53, 3-(6-methylquinolin-8-yl)pyridine-2,6-diamine]
37 | < 100 nM | > 250 °C | CC(C)c1nc(N)ccc1-c1cccc2cccnc12.Cl [Example 11, 6-Isopropyl-5-(8-quinolyl)pyridin-2-amine]
